Results on nine compounds are retold here after patent US4303672A, “Cyclopropanecarboxylate insecticides and/or acaricides exhibiting low toxicity to mammals and fish” (priority 1979, dated 1981).

Data set [1] in a line: Test Example 7: Test for toxicity to fishes (fry carp). The format is in vivo, fry carp (Cyprinus carpio). The following applies: water, read-out: Toxicity to fishes TLm48. The method, then:
(§1) Toxicity to killifish (Oryzias latipes) was tested according to the test method for toxicity to fishes described in Notification B No. 2735 of the Ministry of Agriculture and Forestry (Nov. 25, 1965). Namely, each of the present compounds (1), (4), (5) and (6) was dissolved or suspended in "Tween 80" and diluted successively with dechlorinated tap water. Ten killifish (0.2-0.3 g per fish) were released in a 10-liter glass vessel containing 5 liters of each preparation.
Toxicity to fry carp (Cyprinus carpio) was tested according to the test method for toxicity to fishes described in Notification B No. 2735 of the Ministry of Agriculture and Forestry (Nov. 25, 1965). The comparative test was made in a manner similar to that of Test Example 1.

In data set [2] the test system is killifishes (Oryzias latipes). Put plainly: Test Example 6: simulated paddy field test, killifish. It counts as in vivo. Conditions: 100 ppm at 100 liter/10 are, water depth 5 cm, after 48 hours. The method, then: (§2) The wettable powder of each of the present compounds (1), (2), (4) and (5) prepared in Preparation Example 4 was diluted with water so that the concentration of active ingredient was 100 ppm. Soil was placed in a plastic box [5 m×5 m×2 m (deep)] to a level of 50 cm from the bottom, and rice plants about 50 cm high were transplanted at intervals of 50 cm. Water was then placed in the box so that water depth was 5 cm, and 20 killifishes (Oryzias latipes) were liberated therein. Thereafter, the above dilute solution was sprayed on the box at a rate of 100 liter/10 are. The solution fell on the rice plants as well as on the water surface.
(§3) One hour after treatment, 100 female adults of green rice leafhopper (Nephotettix cincticeps) were liberated in the box which was immediately covered with a net.

Data set [3] relates to green rice leafhopper (Nephotettix cincticeps). Briefly: Test Example 6: simulated paddy field test, green rice leafhopper. The format is in vivo. Conditions: 100 ppm at 100 liter/10 are, after 48 hours. The method, then: as §2, §3
In data set [4] the test system is killifish (Oryzias latipes). Briefly: Test Example 1: Test for toxicity to fishes (killifish). The format is in vivo. The following applies: TLm48 killifish (a) / concentration of active ingredient in water (b) at green rice leafhopper LC50. The method, then:
as §1
(§4) In order to make it clearer that the present compounds have a low toxicity to fishes as well as a high insecticidal activity, a safety coefficient to fishes was calculated from the test results of toxicity to fishes and insecticidal activity. [formula]
(§5) A detailed explanation will be given as to a method of how to calculate the safety coefficient. In the case of green rice leafhoppers, calculation was based on the concentration of active ingredient in water obtained by applying a test solution containing the active ingredient in an amount corresponding to LC50 (ppm) to a flooded paddy field 5 cm deep at a rate of 100 liter/10 are, provided that all the active ingredient applied entered the water.
(§6) In this case, the coefficient is 333, which means that the present compound (1) has a 333-fold safety.

Assay in data set [5]: as above
It counts as in vivo, killifish (Oryzias latipes). Conditions: water; killifish, 48 hours; read-out: Toxicity to fishes TLm48 (medium tolerance limit, 48 hours). The method, then:
as §1, §4, §5, §6

For data set [6], the system named is green rice leafhopper (Nephotettix cincticeps). Put plainly: Test Example 1: Test for insecticidal activity (green rice leafhopper). It counts as in vivo. Conditions: green rice leafhopper R-strain, spray on rice plant, 26° C., 24 hours, 3 replications, read-out: LC50 (median lethal concentration).
Source text: The emulsifiable concentrates of the present compounds and reference compound prepared in Preparation Example 1 were each formulated into test solutions having four different concentrations of active ingredient between 500 ppm and 0.5 ppm. Each test solution was sprayed on rice plant in a 180-ml plastic cup which had elapsed one month after sowing, at a rate of 15 cc/2 cups by means of a turn table. After air-drying, the rice plant was covered with a wire-screen cage, and 15 female adults of green rice leafhopper (Nephotettix cincticeps) (a strain resistant to carbamates and organo-phosphates, hereinafter referred to as R-strain) were liberated therein. The plant was placed in an artificial climate chamber kept at 26° C. After 24 hours, the dead and alive were examined. The median lethal concentration [LC50 (ppm)] was calculated from the mortality determined by 3 replications.
as §5, §6

Data set [7] has as its system yellow fever mosquito (Aedes aegypti). The format is in vivo. The following applies: 50 mg granule in 100 cc water, full grown larvae, 24 hours. The method, then: Fifty milligrams of the granule of the present compound (1) obtained in Preparation Example 6 was placed in a 100-cc beaker containing 100 cc of distilled water, and 30 full grown larvae of yellow fever mosquito (Aedes aegypti) were liberated therein. After 24 hours, 100% of the larvae could be killed.

In data set [8] the test system is green rice leafhopper (Nephotettix cincticeps). Put plainly: Test Example 5: Residual effect test (green rice leafhopper). The format is in vivo. The method, then: The emulsifiable concentrate of the present compound (1) prepared in Preparation Example 1 was diluted with water so that the concentration of active ingredient was 400 ppm. Thereafter, 20 cc of the dilute solution was sprayed on rice plants grown in a 1/10,000 are Wagner's pot. The rice plants were air-dried and covered with a wire-screen cage, and 15 female adults of green rice leafhopper (Nephotettix cincticeps) were liberated therein. After 24 hours, the dead and alive were examined to obtain mortality. In order to examine the residual effect, the pot was then left as it was for 7 days, and the test insects were liberated in the same manner as above. After 24 hours, the mortality was examined. The experiment was carried out in a greenhouse and the number of replications was three.

The test system of data set [9] is carmine mites (Tetranychus cinnabarinus). Put plainly: Test Example 4: spray test against carmine mites on rice plants. The format is in vivo. The following applies: 500 ppm spray, all stages, after 10 days. The method, then: The emulsifiable concentrate of each of the present compounds (1) and (6) prepared in Preparation Example 1 was diluted with water so that the concentration of the active ingredient was 500 ppm. The dilute liquor was thoroughly sprayed on rice plants (grown in a 1/10,000 are Wagner's pot) on which carmine mites (Tetranychus cinnabarinus) in all stages were made parasitic.

For orientation: mortality means the share of the test organisms that died.

Each structure is given as a SMILES string. In brackets after ≈: the same amount, converted by molar mass. Where two headings read alike, the source gives them in different places.

For the compound `CC1(C)[C@H](C(=O)OC(C#N)c2cccc(Oc3ccc(Br)cc3)c2)[C@H]1C(Br)C(Cl)(Cl)Br` (relative stereo) [(2), m-(p-Bromophenoxy)-α-cyanobenzyl dl-trans-2,2-dimethyl-3-(1,2-dibromo-2,2-dichloroethyl)cyclopropanecarboxylate], the LC50 at 48 h in data set [1] was more than 1 µg/mL. Besides, the killifish survival result in data set [2] is given as “all the killifishes were alive”. Further, the “alive green rice leafhoppers found” value in [3] is reported as “no alive green rice leafhoppers were found”.

On to `CC1(C)[C@H](C(=O)OC(C#N)c2cccc(Oc3ccc(Br)cc3)c2)[C@@H]1C(Br)C(Cl)(Cl)Br` (relative stereo) [(3), m-(p-Bromophenoxy)-α-cyanobenzyl dl-cis-2,2-dimethyl-3-(1,2-dibromo-2,2-dichloroethyl)cyclopropanecarboxylate], for which the LC50 at 48 h in [1] is more than 1 µg/mL.

As to `CC1(C)C(C(=O)OC(C#N)c2cccc(Oc3ccc(Br)cc3)c2)C1C(Br)C(Cl)(Cl)Br` (stereo not drawn) [(1), m-(p-Bromophenoxy)-α-cyanobenzyl 2,2-dimethyl-3-(1,2-dibromo-2,2-dichloroethyl)cyclopropanecarboxylate], the results for the LC50 at 48 h in data set [1] and in data set [5] were more than 1 µg/mL and 4 µg/mL (≈ 6.11 µM), respectively. Besides, the killifish survival entry in [2] is on record as “all the killifishes were alive”. Besides, the “Safety coefficient to fishes (a)/(b)” value in data set [4] came out at 333. Also, the LC50 in [6] was determined as 5.8 µg/mL (≈ 8.85 µM). Besides, the “alive green rice leafhoppers found” value in [3] is given as “no alive green rice leafhoppers were found”. Moreover, in data set [7], the larvae killed is 100%. In addition, the mortality at 400 ppm in data set [8] (400 ppm spray, 24 hours after liberation, greenhouse, read-out: Mortality, effect immediately after treatment) was 100%; in data set [8] (400 ppm spray, insects liberated 7 days after treatment, 24 hours, greenhouse, read-out: Mortality, effect 7 days after treatment), 100%. Also, the “spreading of the damage to rice plants by carmine mites” value in data set [9] is reported as “the spreading of the damage could be prevented”.

On to `CC1(C)C(C(=O)OC(C#N)c2cccc(Oc3ccc(Br)cc3)c2)C1C(Br)C(Br)(Br)Br` (stereo not drawn) [(4), m-(p-Bromophenoxy)-α-cyanobenzyl 2,2-dimethyl-3-(1,2,2,2-tetrabromoethyl)cyclopropanecarboxylate], for which, in data set [2], the killifish survival entry was “all the killifishes were alive”. Further, the “Safety coefficient to fishes (a)/(b)” value in data set [4] is given as more than 500. Besides, the LC50 at 48 h in data set [5] is more than 10 µg/mL. The LC50 in data set [6] amounted to 10 µg/mL (≈ 13.4 µM). Besides, the “alive green rice leafhoppers found” value in data set [3] was “no alive green rice leafhoppers were found”.

With `CC1(C)[C@H](C(=O)OC(C#N)c2cccc(Oc3ccc(Br)cc3)c2)[C@H]1C(Br)C(Br)(Br)Br` (stereo partly drawn) [(5), m-(p-Bromophenoxy)-α-cyanobenzyl d-trans-2,2-dimethyl-3-(1,2,2,2-tetrabromoethyl)cyclopropanecarboxylate], the killifish survival entry in data set [2] was “all the killifishes were alive”. In addition, the “Safety coefficient to fishes (a)/(b)” value in data set [4] was more than 1667. Further, the LC50 at 48 h in [5] is more than 5 µg/mL. Also, the LC50 in data set [6] worked out at 1.7 µg/mL (≈ 2.29 µM). For the same compound, the “alive green rice leafhoppers found” value in data set [3] is listed as “no alive green rice leafhoppers were found”.

As to `CC1(C)[C@H](C(=O)OC(C#N)c2cccc(Oc3ccc(Br)cc3)c2)[C@@H]1C(Br)C(Br)(Br)Br` (stereo partly drawn) [(6), m-(p-Bromophenoxy)-α-cyanobenzyl d-cis-2,2-dimethyl-3-(1,2,2,2-tetrabromoethyl)cyclopropanecarboxylate], the “Safety coefficient to fishes (a)/(b)” value in data set [4] is more than 263. For the same compound, the LC50 at 48 h in data set [5] was more than 5 µg/mL. For the same compound, the LC50 in data set [6] was found to be 9.5 µg/mL (≈ 12.8 µM). Besides, the “spreading of the damage to rice plants by carmine mites” value in data set [9] is reported as “the spreading of the damage could be prevented”.

Take `CC1(C)C(C(=O)OC(C#N)c2cccc(Oc3ccccc3)c2)C1C(Br)C(Cl)(Cl)Br` (centres unmarked) [(A), reference compound]: the LC50 at 48 h in data set [1] is 0.00395 µg/mL (≈ 0.00686 µM); in data set [5] it was 0.5 µg/mL (≈ 0.868 µM). Moreover, the “Safety coefficient to fishes (a)/(b)” value in data set [4] was found to be 50. Besides, the LC50 in data set [6] turned out to be 5 µg/mL (≈ 8.68 µM).

As to `CC1(C)C(C(=O)OC(C#N)c2cccc(Oc3ccc(F)cc3)c2)C1C(Br)C(Cl)(Cl)Br` (centres unmarked) [(B), reference compound], the LC50 at 48 h in [1] amounted to 0.0028 µg/mL (≈ 0.00471 µM); in data set [5], 0.1 µg/mL (≈ 0.168 µM). Further, in data set [4], the “Safety coefficient to fishes (a)/(b)” value came out at 8. Further, the LC50 in data set [6] turned out to be 6.5 µg/mL (≈ 10.9 µM).

For the compound `CNC(=O)Oc1ccc(C)c(C)c1` [MPMC, 3,4-Xylyl Nmethylcarbamate-, reference compound], the mortality at 400 ppm in [8] (24 h, read-out: Mortality, effect immediately after treatment) was 100%; in data set [8] (read-out: Mortality, effect 7 days after treatment), 0%.
